Results as given in patent US20160022710A1, “PRENATAL AND LACTATION SUPPLEMENTS TO ENHANCE CENTRAL NERVOUS SYSTEM DEVELOPMENT OF OFFSPRING” (ABBOTT LABORATORIES, priority 2013, published 2016).

Test: carotenoids in neonatal brain samples
Details: neonatal brain samples studied by the Applicants

Compound | carotenoid occurrence in neonatal brain samples
CC(C)=CCC/C(C)=C/C=C/C(C)=C/C=C/C(C)=C/C=C/C=C(C)/C=C/C=C(C)/C=C/C=C(\C)CCC=C(C)C [lycopene] | very few neonatal brain samples are found to contain detectable levels
CC1=CC(O)CC(C)(C)[C@H]1/C=C/C(C)=C/C=C/C(C)=C/C=C/C=C(C)/C=C/C=C(C)/C=C/C1=C(C)C[C@@H](O)CC1(C)C (stereo partly drawn) [trans-lutein] | predominant carotenoid in the majority of neonatal brain samples
